Measured values published in patent US20090099192A1, “Substituted 1H-pyrrole-2,5-diones” (Bayer CropScience AG, priority 2004, published 2009).

How the values were obtained:
Meloidogyne incognita = experiment: Meloidogyne test (gall formation on lettuce roots); type: in vivo; conditions: for Kill rate in % after 14 d (nematicidal effect by gall formation): 20 ppm, lettuce in sand
Experimental: [table] To produce a suitable preparation of active compound, 1 part by weight of active compound is mixed with the stated amounts of solvent and emulsifier, and the concentrate is diluted with water to the desired concentration. Vessels are filled with sand, active compound solution, Meloidogyne incognita egg/larvae suspension and lettuce seeds. The lettuce seeds germinate and the plants develop. On the roots, galls are formed. After the desired period of time, the nematicidal effect is determined in % by means of gall formation. 100% means that no galls were found; 0% means that the number of galls on the treated plants corresponds to that of the untreated control.

[1] = logP determination by HPLC on reversed-phase column (C 18), EEC Directive 79/831 Annex V.A8; type: physicochemical; conditions: reversed-phase C 18, 43° C., acid range (0.1% aqueous phosphoric acid, acetonitrile), marked a)
In short: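 Reversed-phase C18 HPLC at 43° C, per EEC Directive 79/831 Annex V.A8, acid range: 0.1% aqueous phosphoric acid with linear 10–90% acetonitrile gradient. logP derived from retention time by linear interpolation between calibrating unbranched alkan-2-ones (C3–C16) of known logP.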

[2] = test system: caterpillars of the army worm (Spodoptera frugiperda); experiment: Spodoptera frugiperda test (cabbage leaves dipped); type: in vivo; conditions: for Kill rate in % after 7 d: 500 ppm, leaf dip, Brassica oleracea
Experimental: (§1) [table] To produce a suitable preparation of active compound, 1 part by weight of active compound is mixed with the stated amount of solvent and the stated amount of emulsifier, and the concentrate is diluted with emulsifier-containing water to the desired concentration. Cabbage leaves (Brassica oleracea) are treated by being dipped into the active compound preparation of the desired concentration and populated with caterpillars of the army worm (Spodoptera frugiperda) while the leaves are still moist. After the desired period of time, the kill in % is determined. 100% means that all caterpillars have been killed; 0% means that none of the caterpillars have been killed.

[3] = test system: common spidermite (Tetranychus urticae); experiment: Tetranychus test; type: in vivo; conditions: for Kill rate in % after 5 d: 500 ppm, spray, Phaseolus vulgaris disks
Experimental: To produce a suitable preparation of active compound, 1 part by weight of active compound is mixed with the stated amounts of solvent and emulsifier, and the concentrate is diluted with emulsifier-containing water to the desired concentration.
Disks of beans (Phaseolus vulgaris), which are infested by all stages of the common spidermite (Tetranychus urticae) are sprayed with an active compound preparation of the desired concentration.
After the desired period of time, the effect in % is determined. 100% means that all spidermites have been killed; 0% means that none of the spidermites have been killed.

[4] = test system: larvae of the mustard beetle (Phaedon cochleariae); experiment: Phaedon test (spray treatment); type: in vivo; conditions: for Kill rate in % after 7 d: 500 g/ha, spray, Brassica pekinensis disks
Experimental: (§2) [table] To produce a suitable preparation of active compound, 1 part by weight of active compound is mixed with the stated amounts of solvents and emulsifier, and the concentrate is diluted with emulsifier-containing water to the desired concentration. Disks of Chinese cabbage (Brassica pekinensis) are sprayed with an active compound preparation of the desired concentration and, after drying, populated with larvae of the mustard beetle (Phaedon cochleariae). After the desired period of time, the effect in % is determined. 100% means that all beetle larvae have been killed; 0% means that none of the beetle larvae have been killed.

[5] = test system: caterpillars of the army worm (Spodoptera frugiperda); experiment: Spodoptera frugiperda test (corn leaf disks sprayed); type: in vivo; conditions: for Kill rate in % after 7 d: 500 g/ha, spray, Zea mays leaf disks
Experimental: as §2, with “corn leaves (Zea mays)” for “Chinese cabbage (Brassica pekinensis)”, “caterpillars” for “larvae”, “army worm (Spodoptera frugiperda).” for “mustard beetle (Phaedon cochleariae).”, “caterpillars” for “beetle larvae”

[6] = test system: green peach aphid (Myzus persicae); experiment: Myzus test - oral; type: in vivo; conditions: for Kill rate in % after 6 d: oral (sucking)
Experimental: [table] To produce a suitable preparation of active compound, 1 part by weight of active compound is mixed with the stated amounts of solvent, and the concentrate is diluted with water to the desired concentration. Vessels are populated with all stages of the green peach aphid (Myzus persicae), which are treated by sucking on the active compound preparation of the desired concentration. After the desired period of time, the effect in % is determined. 100% means that all aphids have been killed; 0% means that none of the aphids have been killed.

[7] = test system: cotton aphid (Aphis gossypii); experiment: Aphis gossypii test; type: in vivo; conditions: for Kill rate in % after 7 d: 500 g/ha, spray, Gossypium hirsutum
Experimental: (§3) [table] To produce a suitable preparation of active compound, 1 part by weight of active compound is mixed with the stated amounts of solvent and emulsifier, and the concentrate is diluted with emulsifier-containing water to the desired concentration. Cotton leaves (Gossypium hirsutum) which are heavily infested by the cotton aphid (Aphis gossypii) are treated by spraying with the active compound preparation at the desired concentration. After the desired period of time, the kill in % is determined. 100% means that all animals have been killed; 0% means that none of the animals have been killed.

[8] = test system: green peach aphid (Myzus persicae); experiment: Myzus test (spray treatment, Brassica oleracea); type: in vivo; conditions: for Kill rate in % after 7 d: 500 g/ha, spray, Brassica oleracea
Experimental: as §3, with “Cabbage” for “Cotton”, “(Brassica oleracea)” for “(Gossypium hirsutum)”, “green peach” for “cotton”, “(Myzus persicae)” for “(Aphis gossypii)”

[9] = test system: green peach aphid (Myzus persicae); experiment: Myzus test (spray treatment, Brassica pekinensis); type: in vivo; conditions: for Kill rate in % after 5 d: 500 g/ha, spray, Brassica pekinensis disks
Experimental: as §2, with “pekinensis) which are infested by all stages of the green peach aphid (Myzus persicae)” for “pekinensis)”, “concentration.” for “concentration and, after drying, populated with larvae of the mustard beetle (Phaedon cochleariae).”, “aphids” for “beetle larvae”

[10] = test system: caterpillars of the diamond back moth (Plutella xylostella); experiment: Plutella test; type: in vivo
Experimental: as §1, with “amounts” for “amount”, “and” for “and the stated amount of”, “diamond back moth (Plutella xylostella)” for “army worm (Spodoptera frugiperda)”

logP [1] | Compound | activity in the Meloidogyne test (Meloidogyne incognita) | Kill rate in % after 14 d (nematicidal effect by gall formation) (Meloidogyne incognita) [%] | activity in the Tetranychus test [3] | Kill rate in % after 5 d [3] [%] | activity in the Phaedon test (spray treatment) [4] | Kill rate in % after 7 d [4] [%] | activity in the Spodoptera frugiperda test (spray) [5] | Kill rate in % after 7 d [5] [%] | activity in the Myzus test - oral [6] | activity in the Myzus test (spray, Brassica pekinensis) [9] | Kill rate in % after 5 d [9] [%] | further results
logP = 3.64^a) | O=C1C(O)=C(c2ccc(C(F)(F)F)cc2)C(=O)N1c1ccc(OC(F)(F)F)cc1 [Example 10] | good activity | 99 | – | – | – | – | – | – | – | – | – | activity in the Spodoptera frugiperda test (leaf dip) [2]: good activity; Kill rate in % after 7 d [2]: 100%
logP = 5.34^a) | CC(C)(C)C(=O)OC1=C(c2ccccc2Br)C(=O)N(C2CCCC(C(F)(F)F)C2)C1=O (centres unmarked) [Example 185] | – | – | good activity | 80 | good activity | 100 | good activity | 100 | good activity | good activity | 100 | Kill rate in % after 6 d ([6]; 20 ppm): 100%; activity in the Aphis gossypii test [7]: good activity; Kill rate in % after 7 d [7]: 95%; activity in the Myzus test (spray, Brassica oleracea) [8]: good activity; Kill rate in % after 7 d [8]: 95%
– | CCN1C(=O)C(OC(C)=O)=C(c2c(C)cc(C)cc2C)C1=O [Example 3] | – | – | – | – | – | – | – | – | – | good activity | 90 | activity in the Plutella test [10]: good activity; Kill rate in % after 7 d ([10]; 1000 ppm, leaf dip): 90%
logP = 3.56^a) | O=C1C(O)=C(c2ccc(F)cc2C(F)(F)F)C(=O)N1C1CCCC(C(F)(F)F)C1 (centres unmarked) [Example 192] | – | – | good activity | 90 | good activity | 100 | – | – | good activity | – | – | –
– | CC(C)(C)C(=O)OC1=C(c2ccccc2C(F)(F)F)C(=O)N(C2CCCC(C(F)(F)F)C2)C1=O (centres unmarked) [Example 220] | good activity | 80 | – | – | good activity | 100 | – | – | – | good activity | 100 | –
logP = 5.29^a) | CC(C)(C)C(=O)OC1=C(c2ccccc2Cl)C(=O)N(C2CCCC(C(F)(F)F)C2)C1=O (centres unmarked) [Example 201] | – | – | good activity | 100 | good activity | 100 | good activity | 100 | good activity | good activity | 100 | Kill rate in % after 6 d ([6]; 20 ppm): 100%; activity in the Aphis gossypii test [7]: good activity; Kill rate in % after 7 d [7]: 99%; activity in the Myzus test (spray, Brassica oleracea) [8]: good activity; Kill rate in % after 7 d [8]: 98%
– | O=C1C(O)=C(c2ccccc2I)C(=O)N1C1CCCC(C(F)(F)F)C1 (centres unmarked) [Example 219] | – | – | – | – | good activity | 100 | good activity | 100 | good activity | good activity | 90 | Kill rate in % after 6 d ([6]; 100 ppm): 100%
logP = 3.04^a) | N#Cc1ccc(C2=C(O)C(=O)N(C3CCCC(C(F)(F)F)C3)C2=O)cc1 (centres unmarked) [Example 215] | good activity | 80 | – | – | – | – | – | – | – | – | – | activity in the Spodoptera frugiperda test (leaf dip) [2]: good activity; Kill rate in % after 7 d [2]: 85%
– | CCN1C(=O)C(O)=C(c2c(C)cc(C)cc2C)C1=O [Example 1, 1-ethyl-3-hydroxy-4-(2,4,6-trimethylphenyl)-1H-pyrrole-2,5-dione] | – | – | – | – | – | – | – | – | – | – | – | melting point: 168 °C
